From ChEMBL document CHEMBL5154855 (J Med Chem, 2022)
Blank lines part the entries; values can stand above or below the compound they belong to. The source made the active and inactive calls. No cut-off for these calls is given here. Positions of bridges follow the written chain, without caps; N, C: chain ends. Non-standard residues stand in square brackets, D forms with d. Residues, ends and D or L forms follow the SMILES beside them. d2Nal = N[C@H](Cc1ccc2ccccc2c1)C(=O)O; Nle = CCCC[C@H](N)C(=O)O

Assays:
Melanocortin receptor 3 [1] = target: T1, Melanocortin receptor 3 (Homo sapiens, UniProt P41968); assay: Agonist activity at human MC3R transfected in HEK293 cells assessed as cAMP accumulation by split-luciferase assay
T1 sequence (P41968 whole entry): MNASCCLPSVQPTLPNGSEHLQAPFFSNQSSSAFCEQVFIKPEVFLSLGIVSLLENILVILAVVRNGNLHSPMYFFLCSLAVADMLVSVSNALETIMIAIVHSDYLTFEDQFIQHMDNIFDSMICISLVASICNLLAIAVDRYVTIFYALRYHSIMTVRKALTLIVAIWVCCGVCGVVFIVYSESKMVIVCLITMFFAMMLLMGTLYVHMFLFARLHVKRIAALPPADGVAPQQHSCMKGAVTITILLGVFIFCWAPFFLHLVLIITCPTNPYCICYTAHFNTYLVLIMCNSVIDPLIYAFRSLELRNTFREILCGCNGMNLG

Melanocortin receptor 3 [2] = target: T1, Melanocortin receptor 3; assay: Antagonist activity at human MC3R transfected in HEK293T cells co-transfected with GScAMP22F assessed as inhibition of alpha-MSH-indued cAMP production; type: functional, cell-based; conditions: HEK293, filed as antagonist
[3] = target: Melanocortin receptor 4 (Homo sapiens) (UniProt P32245); assay: Antagonist activity at human MC4R transfected in HEK293T cells co-transfected with GScAMP22F assessed as inhibition of alpha-MSH-indued cAMP production; type: functional, cell-based; conditions: HEK293, filed as antagonist
Sequence of Melanocortin receptor 4 (Homo sapiens) (P32245 whole entry): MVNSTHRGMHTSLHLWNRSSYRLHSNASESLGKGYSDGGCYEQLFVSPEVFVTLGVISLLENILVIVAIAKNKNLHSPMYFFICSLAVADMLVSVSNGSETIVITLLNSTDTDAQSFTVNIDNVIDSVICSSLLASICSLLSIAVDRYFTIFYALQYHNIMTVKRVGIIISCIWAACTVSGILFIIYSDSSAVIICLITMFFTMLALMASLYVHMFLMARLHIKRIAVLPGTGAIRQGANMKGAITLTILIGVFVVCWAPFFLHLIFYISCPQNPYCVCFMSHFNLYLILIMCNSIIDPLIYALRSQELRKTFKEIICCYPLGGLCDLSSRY

[4] = target: Melanocyte-stimulating hormone receptor (Homo sapiens) (UniProt Q01726); assay: Agonist activity at human MC1R transfected in HEK293 cells co-transfected with GScAMP22F assessed as increase in cAMP level by split luciferase cAMP sensor dynamic assay relative to control; type: functional, cell-based
Sequence of Melanocyte-stimulating hormone receptor (Homo sapiens) (Q01726 whole entry, looked up): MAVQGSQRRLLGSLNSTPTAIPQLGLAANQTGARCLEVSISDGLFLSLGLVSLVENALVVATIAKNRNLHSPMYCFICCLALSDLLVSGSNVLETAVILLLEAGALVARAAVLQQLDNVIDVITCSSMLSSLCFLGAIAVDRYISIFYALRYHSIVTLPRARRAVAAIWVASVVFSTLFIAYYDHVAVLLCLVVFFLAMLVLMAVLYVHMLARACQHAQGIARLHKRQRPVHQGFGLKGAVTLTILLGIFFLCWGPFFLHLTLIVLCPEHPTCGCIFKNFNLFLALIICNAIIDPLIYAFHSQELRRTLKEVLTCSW

Melanocortin receptor 3 [5] = target: T1, Melanocortin receptor 3; assay: Agonist activity at human MC3R transfected in HEK293T cells co-transfected with GScAMP22F assessed as increase in cAMP level; type: functional, cell-based; conditions: HEK293, filed as agonist
[6] = target: Melanocortin receptor 4 (Homo sapiens) (UniProt P32245); assay: Agonist activity at human MC4R transfected in HEK293T cells co-transfected with GScAMP22F assessed as increase in cAMP level; type: functional, cell-based; conditions: HEK293, filed as agonist
[7] = target: Melanocortin receptor 5 (Homo sapiens) (UniProt P33032); assay: Agonist activity at human MC5R transfected in HEK293 cells co-transfected with GScAMP22F assessed as increase in cAMP level by split luciferase cAMP sensor dynamic assay relative to control; type: functional, cell-based
Sequence of Melanocortin receptor 5 (Homo sapiens) (P33032 whole entry): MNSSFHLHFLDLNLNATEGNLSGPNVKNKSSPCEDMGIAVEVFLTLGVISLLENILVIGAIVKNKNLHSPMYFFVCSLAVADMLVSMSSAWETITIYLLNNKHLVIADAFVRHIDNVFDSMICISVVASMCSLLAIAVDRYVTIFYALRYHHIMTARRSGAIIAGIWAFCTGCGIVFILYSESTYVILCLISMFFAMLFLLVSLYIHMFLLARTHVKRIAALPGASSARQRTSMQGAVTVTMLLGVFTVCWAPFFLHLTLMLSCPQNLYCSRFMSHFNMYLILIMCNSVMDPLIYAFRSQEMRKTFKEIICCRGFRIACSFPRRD

Activity (Melanocortin receptor 3 [2]): Active | Activity [3]: Active
SMILES: CC(=O)N[C@@H](CCCNC(=N)N)C(=O)N[C@@H]1CSSC[C@H](C(N)=O)NC(=O)[C@H](Cc2c[nH]c3ccccc23)NC(=O)[C@H](CCCNC(=N)N)NC(=O)[C@@H](Cc2ccc3ccccc3c2)NC(=O)[C@H](Cc2c[nH]cn2)NC(=O)[C@@H](C)NC1=O

Emax [4]: < 10%
SMILES: CCCC[C@H](NC(C)=O)C(=O)N[C@H]1CC(=O)NCCCC[C@@H](C(N)=O)NC(=O)[C@H](Cc2c[nH]c3ccccc23)NC(=O)[C@H](CCCNC(=N)N)NC(=O)[C@@H](Cc2ccc3ccccc3c2)NC(=O)[C@@H]2CCCN2C(=O)[C@@H]2CCCN2C1=O (Ac-[Nle]DPP[d2Nal]RWK-NH2; lactam 2-8)

Emax [7]: < 10%
SMILES: CCCC[C@H](NC(=O)[C@@H](NC(=O)[C@@H](N)Cc1ccc(O)cc1)C(C)C)C(=O)NCC(=O)N1CCC[C@H]1C(=O)N[C@H](Cc1ccc2ccccc2c1)C(=O)N[C@@H](CCCN=C(N)N)C(=O)N[C@@H](Cc1c[nH]c2ccccc12)C(=O)N[C@@H](CC(=O)O)C(=O)N[C@@H](CCCN=C(N)N)C(=O)N[C@@H](Cc1ccccc1)C(=O)NCC(N)=O (H-YV[Nle]GP[d2Nal]RWDRFG-NH2)

Activity (Melanocortin receptor 3 [5]): Active | Activity [6]: Active
SMILES: CCCC[C@H](N)C(=O)N[C@H]1CC(=O)NCCCC[C@@H](C(N)=O)NC(=O)[C@H](Cc2c[nH]c3ccccc23)N(C)C(=O)[C@H](CCCNC(=N)N)NC(=O)[C@@H](Cc2ccccc2)NC(=O)[C@@H]2CCCN2C1=O

The remaining lines, values behind:

SMILES: CCCC[C@H](NC(=O)[C@@H](NC(=O)[C@@H](N)Cc1ccc(O)cc1)C(C)C)C(=O)NCC(=O)N[C@@H](Cc1c[nH]cn1)C(=O)N[C@H](Cc1ccc2ccccc2c1)C(=O)N[C@@H](CCCN=C(N)N)C(=O)N[C@@H](Cc1c[nH]c2ccccc12)C(=O)N[C@@H](CC(=O)O)C(=O)N[C@@H](CCCN=C(N)N)C(=O)N[C@@H](Cc1ccccc1)C(=O)NCC(N)=O
EC50 (Melanocortin receptor 3 [1]): > 10 µM

SMILES: CCCC[C@H](NC(=O)[C@@H](NC(=O)[C@@H](N)Cc1ccc(O)cc1)C(C)C)C(=O)NCC(=O)N[C@@H](Cc1cnc[nH]1)C(=O)N[C@H](Cc1ccc2ccccc2c1)C(=O)N[C@@H](CCCNC(=N)N)C(=O)N[C@H](Cc1c[nH]c2ccccc12)C(=O)N[C@@H](CC(=O)O)C(=O)N[C@@H](CCCNC(=N)N)C(=O)N[C@@H](Cc1ccccc1)C(=O)NCC(=O)O
Activity (Melanocortin receptor 3 [2]): Active | Activity [3]: Active

SMILES: CC(=O)N[C@@H](CCCNC(=N)N)C(=O)N[C@H]1CSSC[C@@H](C(N)=O)NC(=O)[C@H](Cc2c[nH]c3ccccc23)NC(=O)[C@H](CCCNC(=N)N)NC(=O)[C@@H](Cc2ccccc2)NC(=O)[C@H](Cc2c[nH]cn2)NC(=O)[C@@H](C)NC1=O
Activity (Melanocortin receptor 3 [5]): Active | Activity [6]: Active

SMILES: CCCC[C@H](NC(=O)[C@@H](NC(=O)[C@@H](N)Cc1ccc(O)cc1)C(C)C)C(=O)NCC(=O)N[C@@H](Cc1cnc[nH]1)C(=O)N[C@@H](Cc1ccccc1)C(=O)N[C@@H](CCCNC(=N)N)C(=O)N[C@H](Cc1c[nH]c2ccccc12)C(=O)N[C@@H](CC(=O)O)C(=O)N[C@@H](CCCNC(=N)N)C(=O)N[C@@H](Cc1ccccc1)C(=O)NCC(=O)O
Activity [6]: Active
